Results published in ChEMBL document CHEMBL1155920, “Effects of the aryl linker and the aromatic substituent on the anti-HCV activities of aryl diketoacid (ADK) analogues” (Bioorg Med Chem Lett, 2008).

Legend:
Hepatitis C virus [1] = experiment: Inhibition of recombinant HCV 1b NS5B deltac21 RNA polymerase by scintillator counting; set-up: species or system Hepatitis C virus subtype 1b
[2] = Inhibition of HCV RNA-dependent RNA polymerase; set-up: species or system Hepacivirus hominis
Hepatitis C virus [3] = experiment: Antiviral activity against HCV subgenomic replicon harboring NS5B gene transfected in human Huh7 cells; format: functional, Hepacivirus hominis; details: Huh-7
[4] = Cytotoxicity against human Huh7 cells; format: cell-based, Huh-7

## O=C(O)/C(O)=C/C(=O)c1cccc(NCc2ccccc2)c1
Hepatitis C virus [1]
  IC50: 28 µM
[2]
  IC50: 17 µM
Hepatitis C virus [3]
  EC50: 28 µM
[4]
  CC50: > 100 µM

## O=C(O)/C(O)=C/C(=O)c1ccc(OCc2ccccc2)cc1
Hepatitis C virus [1]
  IC50: 8.3 µM
Hepatitis C virus [3]
  EC50: 0.66 µM
[4]
  CC50: > 100 µM

## O=C(O)/C(O)=C/C(=O)c1ccc(OCc2ccc(Cl)cc2)cc1
Hepatitis C virus [1]
  IC50: 1.5 µM
Hepatitis C virus [3]
  EC50: 3.1 µM
[4]
  CC50: > 100 µM

## O=C(O)/C(O)=C/C(=O)c1cccc(OCc2ccccc2)c1
Hepatitis C virus [1]
  IC50: 4.6 µM
[2]
  IC50: 8 µM
Hepatitis C virus [3]
  EC50: 30 µM
[4]
  CC50: > 100 µM

## O=C(O)/C(O)=C/C(=O)c1cccc(OCc2ccc(Cl)cc2)c1
Hepatitis C virus [1]
  IC50: 28 µM
Hepatitis C virus [3]
  EC50: > 50 µM
[4]
  CC50: > 100 µM

## O=C(O)/C(O)=C/C(=O)c1ccccc1OCc1ccc(Cl)cc1
Hepatitis C virus [1]
  IC50: 2 µM
Hepatitis C virus [3]
  EC50: 0.54 µM
[4]
  CC50: > 100 µM

## O=C(O)/C(O)=C/C(=O)c1ccccc1OCc1ccccc1
Hepatitis C virus [1]
  IC50: 30 µM
Hepatitis C virus [3]
  EC50: 40 µM
[4]
  CC50: > 100 µM

## O=C(O)/C(O)=C/C(=O)c1cccc(NCc2ccc(Cl)cc2)c1
Hepatitis C virus [1]
  IC50: 0.96 µM
Hepatitis C virus [3]
  EC50: 0.82 µM
[4]
  CC50: > 100 µM
